# Measurements as given in US6147076A, “Analogues of N-acetylardeemin, method of preparation and uses thereof” (priority 1996, dated 2000).
# Several values for one entry are separate records, joined by “and”; a condition that tells them apart may be missing. Equal entries are not always repeated. Where two headings read alike, the source gives them in different places.
# Key:
# [1] = tested on: DC-3F/ADX cells; test: Cytotoxicity toward DC-3F/ADX cells; assay type: cell-based, hamster
# [2] = tested on: CCRF-CEM/VM-1 cells; test: Cytotoxicity toward VM-26-resistant CCRF-CEM/VM-1 cells (mutated Topo II gene); assay type: cell-based, human; settings: Homo sapiens, CCRF-CEM, read-out: IC50 of reversing agent
# [3] = tested on: CCRF-CEM cells; test: Influx of [3H]VP-16 in CCRF-CEM cells; assay type: cell-based, human; settings: Homo sapiens, CCRF-CEM, 0.5 h, read-out: increase of VP-16 accumulation
# [4] = tested on: CCRF-CEM cells; test: Two drug combination study of vinblastine and 5-N-acetylardeemin on CCRF-CEM, 72 hr, XTT assay; assay type: cell-based; settings: Homo sapiens, Table 2, drug alone, read-out: Dm (median-effect concentration)
# Text: CCRF-CEM Cell Line at 72-HR Exposure Time. Based on XTT
# [5] = tested on: vinblastine-resistant CCRF-CEM cells (CCRF-CEM/VBL100); test: Two drug combination study of vinblastine and 5-N-acetylardeemin on vinblastine-resistant CCRF-CEM, 72 hr, XTT assay; assay type: cell-based, human
# Text: Vinblastine-resistant CCRF-CEM Cell Line at 72-HR Exposure Time.
# Based on XTT Assay. (large-scale study)
# [6] = tested on: P388/DX leukemic cells; test: Drug combination of adriamycin and 5-N-acetyl-ardeemin against P388/DX cell growth (XTT); assay type: cell-based; settings: drug alone
# Text: | microplate, 25,000 cell/well, N = 2.
# [7] = tested on: CCRF-CEM cells; test: Intracellular accumulation of [3H]vinblastine in CCRF-CEM cells; assay type: cell-based, human; settings: 30 μM
# Method: (§1) *Cells were preloaded with [^3 H]
# (§2) times (or without wash) with 100 ml cold medium to remove extracellular
# (§3) with or without a reverse prenyl compound or an MDRreversing agent. Cells
# (§4) were then separated from radioactive medium by microfuge oillayer method.
# (§5) Extracellular space counts carried down # by cells (^3 HInulin space
# (§6) were subtracted from the total radioactive counts.
# [8] = tested on: CCRF-CEM/VLB-100 cells; test: Intracellular accumulation of [3H]vinblastine in CCRF-CEM/VLB-100 cells; assay type: cell-based, human; settings: 30 μM
# Method: as §1, §2, §3, §4, §5, §6
# [9] = Cytotoxicity (XTT, 72 hr) in HCT116 cells; settings: human
# Method: All drug exposures were for 72 hr and cytotoxicity was measured by XTT tetrazolium dye assay.
# [10] = Solubility; assay type: physicochemical; settings: at concentrations higher than […]
# [11] = tested on: DC-3F/ADII cells
# [12] = tested on: DC-3F/ADII cells; test: cells; settings: Mesocricetus auratus, DC3F
# [13] = tested on: CCRF-CEM/VBL100 cells; test: cells; settings: Homo sapiens
# [14] = tested on: vinblastine-resistant CCRF-CEM cells (CCRF-CEM/VBL100); test: Two drug combination study of vinblastine and 5-N-acetylardeemin on vinblastine-resistant CCRF-CEM, 72 hr, XTT assay; assay type: cell-based, human; parameters: dose of drug at FA (drug alone): unit not given here; settings: for Dose reduction index / dose of drug at FA (drug alone): Table 3
# [15] = tested on: KBV-1 (vinblastine resistant) tumor cell lines; settings: in words; cited from earlier work
# [16] = tested on: DC-3F hamster lung cells; test: Cytotoxicity toward DC-3F hamster lung cells; settings: Mesocricetus auratus, DC3F
# [17] = tested on: P388/0; test: Survival time evaluation for BDF mice bearing P388/0; settings: for survival time: individual mice
# [18] = tested on: P388/DX; test: Survival time evaluation for BDF mice bearing P388/DX; settings: for survival time: individual mice
# [19] = tested on: CCRF/VM-1 cells; test: Intracellular accumulation of VP-16 in CCRF/VM-1 cells; settings: Homo sapiens, 0.5 h, read-out: increase of VP-16 accumulation
# [20] = tested on: CCRF-CEM cells; test: Cytotoxicity / growth inhibition of CCRF-CEM leukemic cells; settings: Homo sapiens
# [21] = tested on: CCRF-CEM cells; test: Accumulation of VP-16 in CCRF-CEM cells preloaded with [3H]VP-16; settings: Homo sapiens, 0.5 h, read-out: increase of intracellular accumulation of VP-16
# [22] = tested on: P388 leukemic cells; test: Drug combination of adriamycin and 5-N-acetyl-ardeemin against P388 cell growth (XTT); settings: Mus musculus, P388, drug alone
# [23] = tested on: P388/O tumor; test: Combination therapy of adriamycin & 5-N-acetyl-ardeemin or verapamil in B6D2F1 mice bearing P388/O tumor; settings: 5NAc-Ardm 70 mg/kg;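 also: male BDF mice carrying P388/O given intraperitoneally, dosing begun on day 1 on a QDX4, QWX2 schedule, five animals per dose level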
# [24] = tested on: P388/DX tumor; test: Combination therapy of adriamycin & 5-N-acetyl-ardeemin or verapamil in B6D2F1 mice bearing P388/DX tumor;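 also: male BDF mice implanted intraperitoneally with P388/DX cells, 10^6 per mouse, dosed from day 1 on a QDX4, QWX2 schedule, five mice per dose group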; settings: 5NAc-Ard. 70 mg/kg
# [25] = apparently through calcium antagonism; cited from earlier work
# [26] = read-out: IC50 for inhibiting cell growth, Table 7, DC-3F/SDII
structure (smiles),measurement,setting,value
C=CC(C)(C)C12CC3c4nc5ccccc5c(=O)n4C(C)C(=O)N3C1N(C(C)=O)c1ccccc12 (centres unmarked) [5-N-Acetylardeemin],IC50,"[1]; DC3F/ADX, DC-3F/ADX",3.69 µM
same,(C)/(A),"[1]; IC50 ratio DC-3F/ADX to DC-3F, * collaterally sensitive",0.49 X
same,IC50,[2],39.4 µM
same,activation at 30 µM,[3],66%
same,IC50,[4],18.8 µM
same,dose reduction in combination,"[5]; 1:2000 ratio, at 98.4% inhibition",55 fold
same,IC50,"[5]; Homo sapiens, CCRF-CEM, Table 4 (large-scale study), drug alone, read-out: Dm (median-effect concentration)",29.8 µM
same,IC50,[6],65.9 µM
same,[3H]vinblastine accumulation,[7]; washed,32.73 fmole/10^3 cells
same,[3H]vinblastine accumulation,[7]; without wash,37.45 fmole/10^3 cells
same,[3H]vinblastine accumulation,[8]; washed,12.78 fmole/10^3 cells
same,[3H]vinblastine accumulation,[8]; without wash,35.44 fmole/10^3 cells
same,MNTC at 72 h,[9],≥ 2200 nM
same,solubility,[10],diminished solubility
same,(B)/(A),"[11]; IC50 ratio DC-3F/ADII to DC-3F, * collaterally sensitive",2.2 X
same,IC50,[11]; [26],1.59 µM
same,IC50,"[12]; read-out: IC50 (B), DC-3F/ADII",16.8 µM
same,IC50,[12]; [26],1.07 µM
same,IC50,"[13]; Table 6, CCRF-CEM/VBL",6.99 µM
same,IC50,"[13]; read-out: IC50 of reversing agent, Table 6B, CCRF-CEM/VBL",18.1 µM
same,IC50,"[14]; Homo sapiens, CCRF-CEM, Table 3, drug alone, read-out: Dm (median-effect concentration)",19.4 µM
same,Dose reduction index,[14]; FA .9843,55.57
same,dose of drug at FA (drug alone),[14]; FA .9843,555.6899
same,Dose reduction index,[14]; FA .9861,61.43
same,dose of drug at FA (drug alone),[14]; FA .9861,614.2689
same,Dose reduction index,[14]; FA .9898,79.19
same,dose of drug at FA (drug alone),[14]; FA .9898,791.8969
same,reversal of multidrug resistance,[15],one of the most potent known agents for reversal of multidrug resistance
same,IC50,"[16]; read-out: IC50 (A), mean ± spread, mean of the determinations",7.51 ± 2.58 µM
same,IC50,"[16]; read-out: IC50 for inhibiting cell growth, Table 7, DC-3F",3.74 µM
same,IC50,"[16]; relative cytotoxicity, DC-3F",5.06 µM
same,% ILS,[17]; 5N-acetylardeemin 3.33 mg/kg,-2%
same,MST,[17]; 5N-acetylardeemin 3.33 mg/kg,7.25
same,survival time,[17]; 5N-acetylardeemin 3.33 mg/kg,6.0 and 7.0 and 8.0
same,% ILS,[17]; 5N-acetylardeemin 10 mg/kg,-10%
same,MST,[17]; 5N-acetylardeemin 10 mg/kg,6.67
same,survival time,[17]; 5N-acetylardeemin 10 mg/kg,60. and 6.5 and 7.5
same,% ILS,[17]; 5N-acetylardeemin 30 mg/kg,-16%
same,MST,[17]; 5N-acetylardeemin 30 mg/kg,6.25
same,survival time,[17]; 5N-acetylardeemin 30 mg/kg,6.0 and 6.5
same,% ILS,[18]; 5N-acetylardeemin 3.33 mg/kg,5%
same,MST,[18]; 5N-acetylardeemin 3.33 mg/kg,7.63
same,survival time,[18]; 5N-acetylardeemin 3.33 mg/kg,6.5 and 7.0 and 8.0 and 9.0
same,% ILS,[18]; 5N-acetylardeemin 10 mg/kg,2%
same,MST,[18]; 5N-acetylardeemin 10 mg/kg,7.42
same,survival time,[18]; 5N-acetylardeemin 10 mg/kg,7.0 and 7.25 and 8.0
same,% ILS,[18]; 5N-acetylardeemin 30 mg/kg,-7%
same,MST,[18]; 5N-acetylardeemin 30 mg/kg,6.75
same,survival time,[18]; 5N-acetylardeemin 30 mg/kg,6.5 and 7.0
same,fold induction at 30 µM,[19],1.95
same,IC50,"[20]; Table 6, CCRF-CEM",17.2 µM
same,IC50,[20]; human leukemic CCRF-CEM cells,29.8 µM
same,IC50,"[20]; read-out: IC50 of reversing agent, Table 6B, CCRF-CEM",29.2 µM
same,fold induction at 30 µM,[21],3.9
same,IC50,[22],43.7 µM
same,% ILS,[23],+2%
same,MST,[23],7.75 days
same,Days survived,[23]; individual mice 1-5,8.5 days and 7.0 days and 8.25 days and 6.5 days
same,% ILS,[24],0%
same,MST,[24],7.55 days
same,Days survived,[24]; individual mice 1-5,6.5 days and 7.25 days and 8.0 days
"C=CC(C)(C)[C@@]12C[C@H]3C(=O)N4[C@@H](C[C@@]5(C(C)(C)C=C)c6ccccc6N[C@@H]45)C(=O)N3[C@@H]1Nc1ccccc12 [Amauromine, amauromine]",vasodilator activity,[25],vasodilator
